From ChEMBL document CHEMBL1201862, “PubChem BioAssay data set” (2004)
Values belong to the compound of their own block, whether it stands above or below them. The source made the active and inactive calls.

Columns and labels:
[1] = target: T1, Low molecular weight phosphotyrosine protein phosphatase (Homo sapiens, UniProt P24666); assay type: functional; details: read-out: IC50_Mean;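 also: Dose-response confirmation assay measuring inhibition of LMPTP enzyme activity by fluorescence intensity read-out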
T1 sequence (P24666 whole entry): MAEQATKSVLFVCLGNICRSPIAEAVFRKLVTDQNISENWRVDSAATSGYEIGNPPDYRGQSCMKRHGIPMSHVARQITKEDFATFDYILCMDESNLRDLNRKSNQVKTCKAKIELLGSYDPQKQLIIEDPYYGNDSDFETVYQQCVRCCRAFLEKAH

Escherichia coli = experiment: microbe, parasite or virus in culture
[2] = target: DNA (cytosine-5)-methyltransferase 1 (Homo sapiens, UniProt P26358); experiment: DNMT1 methyltransferase inhibitors, confirmation, biochemical, fluorescent molecular beacon (AID 602386); assay type: functional
Melanocortin receptor 4 = Melanocortin receptor 4 (Homo sapiens, UniProt P32245); assay type: functional, cell-based;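 also: Cell-based assay with luminescence read-out, confirmatory dose-response testing for agonist activity of biased ligands at MC4R; human U2OS cells with tagged receptor and beta-arrestin; potency of agonists that increase receptor coupling to beta-arrestin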
Interleukin-8 = target: T2, Interleukin-8 (Homo sapiens, UniProt P10145); experiment: Dose Response confirmation of uHTS small molecule hits for cystic fibrosis induced NFkb Inhibitors in a PAF-induced IL8 counterscreen.; assay type: functional; details: read-out: IC50_Mean
T2 sequence (P10145 whole entry): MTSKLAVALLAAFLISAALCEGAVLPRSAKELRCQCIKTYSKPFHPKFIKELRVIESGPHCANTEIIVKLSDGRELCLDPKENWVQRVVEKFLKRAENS

[3] = target: T3, Heat shock factor protein 1 (Mus musculus, UniProt P38532); experiment: inhibition of MG132-induced HSE-luciferase signal, confirmation, cell-based, NIH3T3, luminescence, dose retest (AID 2382); assay type: functional;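 also: NIH3T3 fibroblasts with HSF1-driven luciferase reporter stressed by proteasome inhibitor MG132; luminescence from HSF1-driven luciferase expression after 8 hours of MG132 stress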
T3 sequence (P38532 whole entry): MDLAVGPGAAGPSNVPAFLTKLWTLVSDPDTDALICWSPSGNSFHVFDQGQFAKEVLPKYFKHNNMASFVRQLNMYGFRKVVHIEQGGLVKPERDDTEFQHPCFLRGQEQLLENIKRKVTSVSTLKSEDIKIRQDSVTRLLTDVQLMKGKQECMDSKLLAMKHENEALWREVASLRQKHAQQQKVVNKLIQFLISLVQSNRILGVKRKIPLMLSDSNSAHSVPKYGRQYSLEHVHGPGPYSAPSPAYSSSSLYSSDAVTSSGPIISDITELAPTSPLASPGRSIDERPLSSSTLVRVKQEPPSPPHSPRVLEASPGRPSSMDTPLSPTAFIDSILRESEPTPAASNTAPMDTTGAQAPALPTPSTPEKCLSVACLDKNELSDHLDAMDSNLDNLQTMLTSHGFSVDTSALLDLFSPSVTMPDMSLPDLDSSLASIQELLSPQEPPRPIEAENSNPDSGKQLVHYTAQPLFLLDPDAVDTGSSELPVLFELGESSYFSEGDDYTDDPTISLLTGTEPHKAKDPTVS

H9c2 = experiment: cells; assay type: functional, cell-based; details: Rattus norvegicus, H9c2, Myocardium;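 also: confirmatory concentration-response retest of ultra-high-throughput screening hits for modulation of myocardial damage; cell death induced by hydrogen peroxide oxidative stress; compound pretreatment for 60 min then peroxide exposure for 2 h; potency is for protecting the cells against peroxide damage rather than for killing them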
[4] = Late stage assay provider results from the probe development effort to identify inhibitors of the Plasmodium falciparum M17 Leucine Aminopeptidase (M17LAP): radiolabel-based cell-based dose response assay to identify compounds that inhibit P. falciparum growth in RBCs Set 2.; assay type: functional
[5] = target: T4, Apoptotic protease-activating factor 1 (Homo sapiens, UniProt O14727); experiment: SAR analysis of small molecule Activators of Apaf-1 in a Fluorescent assay.; assay type: functional; details: read-out: EC50_Mean;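 also: caspase-3 cleavage of fluorogenic Rh110 DEVD substrate downstream of apoptosome activation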
T4 sequence (O14727 whole entry): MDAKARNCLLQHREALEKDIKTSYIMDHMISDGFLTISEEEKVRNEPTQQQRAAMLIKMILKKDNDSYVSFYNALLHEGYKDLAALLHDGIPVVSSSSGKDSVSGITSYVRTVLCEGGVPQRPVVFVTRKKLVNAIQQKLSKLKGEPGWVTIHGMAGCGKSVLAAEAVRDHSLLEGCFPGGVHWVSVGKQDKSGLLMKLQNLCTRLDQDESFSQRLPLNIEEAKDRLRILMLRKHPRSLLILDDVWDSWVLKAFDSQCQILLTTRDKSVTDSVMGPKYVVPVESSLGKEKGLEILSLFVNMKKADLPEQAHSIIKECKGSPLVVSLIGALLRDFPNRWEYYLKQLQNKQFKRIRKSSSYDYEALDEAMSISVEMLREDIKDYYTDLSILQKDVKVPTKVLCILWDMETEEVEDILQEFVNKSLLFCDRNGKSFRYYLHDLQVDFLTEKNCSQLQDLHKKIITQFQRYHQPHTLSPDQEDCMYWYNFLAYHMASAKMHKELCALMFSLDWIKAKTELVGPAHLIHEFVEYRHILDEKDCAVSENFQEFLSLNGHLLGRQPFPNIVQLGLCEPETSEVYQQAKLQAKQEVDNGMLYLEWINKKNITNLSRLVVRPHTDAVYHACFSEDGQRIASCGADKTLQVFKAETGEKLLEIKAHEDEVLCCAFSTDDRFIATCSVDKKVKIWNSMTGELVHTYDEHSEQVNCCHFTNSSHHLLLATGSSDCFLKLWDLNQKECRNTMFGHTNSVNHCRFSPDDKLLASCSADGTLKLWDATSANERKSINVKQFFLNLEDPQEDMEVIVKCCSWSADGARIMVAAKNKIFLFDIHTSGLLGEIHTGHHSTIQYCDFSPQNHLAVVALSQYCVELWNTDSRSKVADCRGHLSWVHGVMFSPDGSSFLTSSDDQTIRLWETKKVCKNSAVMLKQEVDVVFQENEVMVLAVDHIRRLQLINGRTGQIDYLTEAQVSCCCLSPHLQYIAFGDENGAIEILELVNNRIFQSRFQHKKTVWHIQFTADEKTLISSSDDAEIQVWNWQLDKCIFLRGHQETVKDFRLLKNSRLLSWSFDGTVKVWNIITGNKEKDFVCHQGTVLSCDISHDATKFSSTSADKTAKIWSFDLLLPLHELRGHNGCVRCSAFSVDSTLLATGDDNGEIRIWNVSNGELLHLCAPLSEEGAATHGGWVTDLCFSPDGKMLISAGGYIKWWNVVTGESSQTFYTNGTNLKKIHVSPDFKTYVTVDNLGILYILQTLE

[6] = target: T5, Methionyl-tRNA synthetase, putative (Trypanosoma brucei brucei, UniProt Q38C91); assay type: functional, Trypanosoma brucei brucei strain 927/4 GUTat10.1
T5 sequence (Q38C91 whole entry): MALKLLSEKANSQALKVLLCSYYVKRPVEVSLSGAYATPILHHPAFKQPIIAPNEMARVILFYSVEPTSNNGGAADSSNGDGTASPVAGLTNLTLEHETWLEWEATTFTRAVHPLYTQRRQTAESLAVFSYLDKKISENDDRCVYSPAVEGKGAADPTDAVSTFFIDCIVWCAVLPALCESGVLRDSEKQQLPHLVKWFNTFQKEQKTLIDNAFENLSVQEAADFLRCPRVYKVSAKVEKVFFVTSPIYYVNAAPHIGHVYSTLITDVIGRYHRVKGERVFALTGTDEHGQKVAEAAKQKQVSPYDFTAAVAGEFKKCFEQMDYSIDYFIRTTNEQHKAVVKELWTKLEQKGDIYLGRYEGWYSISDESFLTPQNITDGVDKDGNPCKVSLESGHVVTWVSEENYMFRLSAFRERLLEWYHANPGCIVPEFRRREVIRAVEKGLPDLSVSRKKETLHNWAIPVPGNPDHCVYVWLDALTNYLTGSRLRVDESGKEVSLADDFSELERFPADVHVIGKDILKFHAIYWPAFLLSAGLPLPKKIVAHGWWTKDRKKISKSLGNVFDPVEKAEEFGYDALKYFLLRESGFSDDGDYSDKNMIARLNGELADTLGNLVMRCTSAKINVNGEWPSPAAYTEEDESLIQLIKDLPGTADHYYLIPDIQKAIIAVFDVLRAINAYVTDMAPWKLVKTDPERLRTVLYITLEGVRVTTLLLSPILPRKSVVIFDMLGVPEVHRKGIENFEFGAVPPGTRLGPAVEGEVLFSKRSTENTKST

[7] = Counterscreen for inhibitors of Trypanosoma brucei methionyl tRNA synthetase (MetRS): Luminescence-based cell-based high throughput dose response assay to identify compounds that are cytotoxic to Jurkat human T lymphocyte cells.; assay type: functional
[8] = target: T5, Methionyl-tRNA synthetase, putative; assay type: functional, Trypanosoma brucei brucei strain 927/4 GUTat10.1; remark: listed apart in the source
[9] = target: T6, Sentrin-specific protease 8 (Homo sapiens, UniProt Q96LD8); assay type: functional
T6 sequence (Q96LD8 whole entry): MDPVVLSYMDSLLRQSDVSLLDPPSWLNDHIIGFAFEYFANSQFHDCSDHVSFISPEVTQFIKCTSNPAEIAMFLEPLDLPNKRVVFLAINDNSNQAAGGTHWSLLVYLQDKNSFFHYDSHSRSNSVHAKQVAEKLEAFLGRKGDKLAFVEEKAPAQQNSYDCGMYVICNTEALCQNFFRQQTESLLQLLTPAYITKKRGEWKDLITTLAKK

[10] = target: T6, Sentrin-specific protease 8; assay type: functional; remark: listed apart in the source
[11] = target: T7, Ubiquitin-conjugating enzyme E2 N (Homo sapiens, UniProt P61088); assay type: functional;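 also: Dose-response confirmation in a TR-FRET assay detecting UBC13-driven polyubiquitin chain formation, inhibition measured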
T7 sequence (P61088 whole entry): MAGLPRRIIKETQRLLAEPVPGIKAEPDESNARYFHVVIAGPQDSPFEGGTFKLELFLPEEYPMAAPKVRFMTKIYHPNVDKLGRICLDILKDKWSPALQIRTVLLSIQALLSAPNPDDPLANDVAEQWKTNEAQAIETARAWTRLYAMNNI

Melanocortin receptor 4, sequence (P32245 whole entry): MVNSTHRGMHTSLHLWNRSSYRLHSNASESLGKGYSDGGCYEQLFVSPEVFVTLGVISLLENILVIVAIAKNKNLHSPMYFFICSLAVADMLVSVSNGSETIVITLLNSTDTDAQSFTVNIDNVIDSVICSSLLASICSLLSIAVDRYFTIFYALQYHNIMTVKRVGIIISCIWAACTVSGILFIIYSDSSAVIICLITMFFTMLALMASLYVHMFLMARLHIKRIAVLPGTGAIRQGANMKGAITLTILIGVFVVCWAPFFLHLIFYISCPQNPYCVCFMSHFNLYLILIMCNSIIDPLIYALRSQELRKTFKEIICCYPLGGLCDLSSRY
DNA (cytosine-5)-methyltransferase 1, sequence (P26358 whole entry): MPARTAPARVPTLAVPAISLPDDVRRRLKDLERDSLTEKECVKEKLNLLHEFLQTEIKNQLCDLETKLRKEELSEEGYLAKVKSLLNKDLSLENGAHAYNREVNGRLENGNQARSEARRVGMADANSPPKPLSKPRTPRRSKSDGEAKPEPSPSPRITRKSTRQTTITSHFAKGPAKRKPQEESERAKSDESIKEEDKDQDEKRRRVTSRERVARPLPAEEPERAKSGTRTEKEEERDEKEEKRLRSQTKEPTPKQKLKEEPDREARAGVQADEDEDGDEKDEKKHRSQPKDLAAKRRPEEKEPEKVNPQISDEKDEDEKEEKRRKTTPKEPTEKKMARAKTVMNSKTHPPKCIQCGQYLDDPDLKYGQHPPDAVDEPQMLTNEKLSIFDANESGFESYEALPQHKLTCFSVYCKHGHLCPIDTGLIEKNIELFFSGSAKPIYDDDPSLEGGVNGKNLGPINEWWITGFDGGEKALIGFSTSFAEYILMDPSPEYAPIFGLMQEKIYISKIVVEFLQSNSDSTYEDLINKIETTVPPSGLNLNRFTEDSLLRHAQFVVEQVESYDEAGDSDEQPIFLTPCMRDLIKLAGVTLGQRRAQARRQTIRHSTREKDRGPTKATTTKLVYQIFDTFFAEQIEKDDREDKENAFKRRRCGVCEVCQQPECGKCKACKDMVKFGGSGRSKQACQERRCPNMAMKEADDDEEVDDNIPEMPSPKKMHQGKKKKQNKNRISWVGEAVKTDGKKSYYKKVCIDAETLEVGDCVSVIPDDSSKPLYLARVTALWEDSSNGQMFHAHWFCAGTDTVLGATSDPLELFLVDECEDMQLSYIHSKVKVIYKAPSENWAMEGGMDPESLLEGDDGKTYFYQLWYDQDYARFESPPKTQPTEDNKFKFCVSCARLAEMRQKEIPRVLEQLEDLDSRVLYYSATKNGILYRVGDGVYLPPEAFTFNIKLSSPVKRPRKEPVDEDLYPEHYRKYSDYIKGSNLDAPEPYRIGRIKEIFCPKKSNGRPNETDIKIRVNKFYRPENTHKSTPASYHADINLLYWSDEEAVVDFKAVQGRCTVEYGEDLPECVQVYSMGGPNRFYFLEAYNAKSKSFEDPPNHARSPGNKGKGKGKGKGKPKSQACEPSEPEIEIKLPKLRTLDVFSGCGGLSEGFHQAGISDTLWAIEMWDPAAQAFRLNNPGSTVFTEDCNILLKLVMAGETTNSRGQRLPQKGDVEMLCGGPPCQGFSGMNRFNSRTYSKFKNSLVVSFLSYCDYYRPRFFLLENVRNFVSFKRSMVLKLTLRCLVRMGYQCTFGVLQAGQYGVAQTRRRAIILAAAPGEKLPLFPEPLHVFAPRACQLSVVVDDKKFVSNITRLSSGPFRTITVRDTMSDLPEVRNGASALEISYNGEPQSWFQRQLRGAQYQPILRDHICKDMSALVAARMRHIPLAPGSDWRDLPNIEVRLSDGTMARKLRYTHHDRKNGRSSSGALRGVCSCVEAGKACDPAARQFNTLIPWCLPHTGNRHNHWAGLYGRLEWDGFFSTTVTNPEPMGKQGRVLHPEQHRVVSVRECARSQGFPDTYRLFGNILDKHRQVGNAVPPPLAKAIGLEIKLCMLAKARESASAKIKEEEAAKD

SMILES: CCn1cc(C(=O)O)c(=O)c2cc(F)c(N3CCN(C(=S)NC(=O)c4ccc(F)c(F)c4)CC3)cc21
IC50 [1]: 16.6 µM (active) | AC50 (Escherichia coli): 3.38 µM (active)

IC50 [2]: 6.09 µM (active)
SMILES: CC(=O)c1cccc(OCC(=O)N(C)CC(=O)NCc2ccco2)c1

EC50 (Melanocortin receptor 4): > 89.2 µM (inactive)
SMILES: CCOc1ccc(Cn2c3ccc(OC)cc3c3nc4ccccc4nc32)cc1

SMILES: CCOc1ccc(-n2c(C)c(C(C)=O)c3cc(OC(C)=O)ccc32)cc1
IC50 (Interleukin-8): > 79 µM (inactive) | EC50 [3]: 24.6 µM (active) | IC50 (H9c2): 9.08 µM (active)

EC50 (Melanocortin receptor 4): > 89.2 µM (inactive)
SMILES: Cc1cc(C)c2sc(N(CCCN(C)C)C(=O)c3ccc(Br)s3)nc2c1

SMILES: CC(C)COc1ccc(CC(=O)NO)cc1
IC50 [4]: 7.4 µM (active)

EC50 [5]: > 100 µM (inactive)
SMILES: COC(=O)c1coc(-c2ccc(-c3ccccc3)cc2)n1

EC50 [5]: > 100 µM (inactive)
SMILES: Cc1cc(C)n(CC(C)C(=O)Nc2ccc(Cl)c(Cl)c2)n1 (stereo not drawn)

SMILES: O=C(Cc1ccc2c(c1)CCCC2)NO
IC50 [4]: 5.5 µM (active)

SMILES: O=C(CC(=O)Nc1cccc(Cl)c1)N/N=C\c1ccccc1
IC50 [6]: 3.94 µM (active) | IC50 [7]: 83.3 µM (inactive) | IC50 [8]: 6.25 µM (active)

SMILES: COc1cc2c(c(OC)c1OC)-c1ccc(O)c(=O)cc1[C@@H](N)CC2
IC50 [9]: 25.7 µM (active) | IC50 [10]: > 100 µM (inactive) | IC50 [11]: > 20 µM (inactive)
